Results: patent publication US12053490B2, “Methods and compositions for treating CD33+ cancers and improving in vivo persistence of chimeric antigen receptor T cells” (ST. JUDE CHILDREN'S RESEARCH HOSPITAL, INC., priority 2017, dated 2024)

System: CD33 CAR T cells
Experiment: Inhibitor treatment during ex vivo culture
Type: cell-based, human
Conditions: for total CD8^+ CAR T cells / T cell expansion: 4 days of inhibitor treatment; for proliferating CD8^+ cells that remained CCR7^+: CellTrace Violet, control T cells about 41%
Method: Inhibitor treatment during ex vivo culture: CD33 CAR or control transduced T cells were labeled with CellTrace Violet (ThermoFisher) 5 days after their initial activation. […] Cells were analyzed 4 days later by flow cytometry.
Day 1: Separated PBMCs from apheresis ring of donor. Enriched human T cells by Pan T cell negative selection kit. Activate human T cells by anti-human CD3 and anti-human CD28 (1 ug/ml) coated plates overnight.
Day2: Transduced human T cells with anti-CD33 CAR gamma-retrovirus or MSCV control by retronectin coated non-tissue culture plate.
Day3: Resuspend the cells and plate them in the IL-2 RPMI medium in the tissue culture plate.
100U/ml IL-2 was added to cultures every 2 days. Cells were analyzed 4 days later by flow Cytometry.

[1] = 4 days, LY294002 10 μM, IC87114 10 μM, API-2 1 μM, rapamycin 50 nM, PP242 1 μM, DCA 10 mM, vs untreated CD33 CAR T cells

Structure (SMILES) | total CD8^+ CAR T cells / T cell expansion | percent of CD8^+ TN and TCM cells [1] | percentage of CCR7^+ cells among undivided CD8^+ cells (4 days) | CD8^+ TEM or TEFF cell numbers (4 days, 10 μM) | number of CD8^+ TN and TCM cells (4 days, same concentrations, vs untreated CD33 CAR T cells) | proliferating CD8^+ cells that remained CCR7^+ (4 days) | CD8^+ TEM or TEFF cell percent (Example 4: 4 days, different concentrations) | percent of CD8^+ TN and TCM cells (Example 4: 4 days, different concentrations, vs untreated CD33 CAR T cells) | number of CD8^+ TEFF cells (4 days, rapamycin 50 nM, PP242 1 μM)
O=C(O)C(Cl)Cl [DCA, dichloroacetic acid] | significantly inhibited T cell expansion | increased |  |  |  |  |  |  | 
Cc1ccccc1-n1c(Cn2cnc3c(N)ncnc32)nc2cccc(C)c2c1=O [IC87114] |  | increased significantly | did not alter | did not significantly alter | increased significantly | ~33% | significant decrease | increased significantly | 
O=c1cc(N2CCOCC2)oc2c(-c3ccccc3)cccc12 [LY294002] |  |  |  |  |  | about 43% |  |  | 
CC(C)n1nc(-c2cc3cc(O)ccc3[nH]2)c2c(N)ncnc21 [PP242] | substantial decrease | no detectable effect |  |  |  |  |  |  | decreased
